# Earlier results in patent US20150328159A1, “Composition” (Innovata Limited, priority 2009, published 2015).
substance,measurement,value
hyaluronic acid,solubility in organic solvents,insoluble
